The results in this text go back to US20250215029A1 (Recludix Pharma, Inc., priority 2022, published 2025).

One assay concerns the target T1, pY641-STAT6 in PBMC (Homo sapiens, UniProt P42226).
T1 construct: Cryopreserved Peripheral Blood Mononuclear Cells (PBMC) are from AllCells; host or cells: cryopreserved PBMC
T1 sequence (P42226 1-847): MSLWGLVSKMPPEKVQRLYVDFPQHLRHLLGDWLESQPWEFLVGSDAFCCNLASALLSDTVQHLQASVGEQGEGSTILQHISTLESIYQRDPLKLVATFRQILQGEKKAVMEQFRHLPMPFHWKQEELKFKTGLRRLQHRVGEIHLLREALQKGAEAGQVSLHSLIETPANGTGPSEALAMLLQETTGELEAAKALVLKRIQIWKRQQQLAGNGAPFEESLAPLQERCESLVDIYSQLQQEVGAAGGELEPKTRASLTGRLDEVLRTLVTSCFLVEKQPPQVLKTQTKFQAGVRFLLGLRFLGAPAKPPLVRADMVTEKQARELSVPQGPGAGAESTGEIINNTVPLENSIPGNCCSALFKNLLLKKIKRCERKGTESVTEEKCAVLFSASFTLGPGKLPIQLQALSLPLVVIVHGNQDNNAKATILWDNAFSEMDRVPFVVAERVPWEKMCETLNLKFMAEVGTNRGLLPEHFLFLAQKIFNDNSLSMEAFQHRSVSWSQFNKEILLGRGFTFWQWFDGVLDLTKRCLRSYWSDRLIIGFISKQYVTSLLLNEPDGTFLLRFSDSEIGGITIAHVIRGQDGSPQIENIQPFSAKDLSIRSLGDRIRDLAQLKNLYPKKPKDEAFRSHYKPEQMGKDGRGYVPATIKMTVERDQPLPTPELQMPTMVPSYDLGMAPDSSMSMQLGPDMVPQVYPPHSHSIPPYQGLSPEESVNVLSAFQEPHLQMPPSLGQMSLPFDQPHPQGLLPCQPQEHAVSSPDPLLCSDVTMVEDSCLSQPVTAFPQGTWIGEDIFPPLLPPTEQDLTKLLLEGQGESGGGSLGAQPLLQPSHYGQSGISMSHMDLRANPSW
The experiment in a line: MSD-pSTAT-PBMC Assay (pSTAT6, IL-4 stimulated). Type of assay: cell-based. The conditions noted are these: compound 3 hrs, then 1 ng/mL IL-4 for 10 min. The gist of the method:
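Thawed human PBMC rested overnight in IMDM/10% FBS, then got compound for 3 hrs before a 10 min cytokine pulse: 1 ng/mL IL-4 for pSTAT6, 10 ng/mL IL-6 for pSTAT3. Lysates went to MSD sandwich capture on total STAT6 or STAT3 with phospho-specific detection. IC50 came from background-subtracted, DMSO-normalized signal.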

For a further assay, the target named is T2, pY705-STAT3 in PBMC (Homo sapiens, UniProt P40763).
T2 construct: Cryopreserved Peripheral Blood Mononuclear Cells (PBMC) are from AllCells; host or cells: cryopreserved PBMC
The experiment in a line: MSD-pSTAT-PBMC Assay (pSTAT3, IL-6 stimulated). Type of assay: cell-based. The following applies: PBMC, compound 3 hrs, then 10 ng/mL IL-6 for 10 min. The gist of the method: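 Human PBMCs were pretreated with compound for 3 h, then stimulated with 10 ng/mL IL-6 for 10 min. Lysate pY705-STAT3 was measured by MSD sandwich immunoassay (anti-STAT3 capture) and corrected for unstimulated background. Signal was normalized to DMSO, and IC50 came from variable-slope regression.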

[1] abbreviates: PBMC, Table 1114, read-out: pSTAT6.
[2] abbreviates: PBMC, Table 115, read-out: STAT6.

Like-named read-outs stand apart in the source and are kept apart here. Some results are limits rather than exact numbers.

T2 sequence (P40763 whole entry): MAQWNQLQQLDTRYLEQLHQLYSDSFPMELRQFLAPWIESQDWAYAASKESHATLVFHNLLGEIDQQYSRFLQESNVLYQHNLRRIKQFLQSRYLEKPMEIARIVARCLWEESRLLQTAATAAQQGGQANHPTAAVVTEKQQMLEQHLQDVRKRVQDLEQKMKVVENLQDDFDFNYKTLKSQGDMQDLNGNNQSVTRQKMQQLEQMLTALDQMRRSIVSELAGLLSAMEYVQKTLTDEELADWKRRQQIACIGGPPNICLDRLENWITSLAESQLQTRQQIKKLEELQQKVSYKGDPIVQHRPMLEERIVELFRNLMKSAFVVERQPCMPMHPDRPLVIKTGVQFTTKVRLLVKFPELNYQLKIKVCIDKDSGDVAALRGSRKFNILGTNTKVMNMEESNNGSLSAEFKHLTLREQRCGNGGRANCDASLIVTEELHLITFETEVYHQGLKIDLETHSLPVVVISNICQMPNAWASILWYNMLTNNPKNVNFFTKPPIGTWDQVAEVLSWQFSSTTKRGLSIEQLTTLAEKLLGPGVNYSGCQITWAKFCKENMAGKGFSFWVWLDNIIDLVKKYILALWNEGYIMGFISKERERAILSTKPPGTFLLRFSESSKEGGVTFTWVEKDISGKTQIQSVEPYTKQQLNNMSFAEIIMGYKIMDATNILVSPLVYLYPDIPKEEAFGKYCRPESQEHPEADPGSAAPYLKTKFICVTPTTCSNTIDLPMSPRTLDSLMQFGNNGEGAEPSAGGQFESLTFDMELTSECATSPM

Take `CC(C)(C)C(=O)OCOP(=O)(OCOC(=O)C(C)(C)C)C(F)(F)c1ccc2sc(C(=O)N[C@H]3CCCC[C@H]4CC[C@@H](C(=O)N5CC(C#N)C(c6cc[nH]c(=O)c6)C5)N4C3=O)cc2c1` (mixture of isomers) [Compound 147, ((((2-(((3S,6S,10aS)-3-(rel-trans)-3-cyano-4-(2-oxo-1,2-dihydro-pyridin-4-yl)pyrrolidine-1-carbonyl)-5-oxodecahydro-pyrrolo[1,2-a]azocin-6-yl)carbamoyl)benzo[b]thiophen-5-yl)difluoromethyl)phosphoryl)bis (oxy))bis (methylene) bis(2,2-dimethylpropanoate)]: the IC50 at pY641-STAT6 in PBMC (setting [1]) is below 100 nM; at pY705-STAT3 in PBMC (Table 1114, read-out: pSTAT3), 100 to 1000 nM.
On the same counts, the results for `CCCC(=O)SCCOP(=O)(OCCSC(=O)CCC)C(F)(F)c1ccc2sc(C(=O)N[C@H]3CCCC[C@H]4CC[C@@H](C(=O)N5C[C@@H](C#N)[C@H](c6ccccc6)C5)N4C3=O)cc2c1` (relative stereo) [Compound 126, S,S′-(((((2-(((3S,6S,10aS)-3-(rel-trans)-3-cyano-4-phenylpyrrolidine-1-carbonyl)-5-oxodecahydro-pyrrolo[1,2-a]azocin-6-yl)carbamoyl)benzo[b]thiophen-5-yl)difluoromethyl)phosphoryl)bis(oxy)) bis(ethane-2,1-diyl)) dibutanethioate] are below 100 nM and 100 to 1000 nM.
For `CC(C)(C)C(=O)OCOP(=O)(OCOC(=O)C(C)(C)C)C(F)(F)c1ccc2sc(C(=O)N[C@H]3CCCCC4CC[C@@H](C(=O)N5C[C@H](C6CCCCC6)[C@@H](C#N)C5)N4C3=O)cc2c1` (relative stereo) [Compound 143, ((((2-(((3S,6S,10aS)-3-(rel-(trans)-3-cyano-4-cyclohexyl-pyrrolidine-1-carbonyl)-5-oxodecahydro-pyrrolo[1,2-a]azocin-6-yl)carbamoyl)benzo[b]thiophen-5-yl)difluoromethyl)phosphoryl)bis (oxy))bis (methylene) bis (2,2-dimethyl-propanaote)], in that order: below 100 nM and 100 to 1000 nM.
`CC(C)(C)C(=O)OCOP(=O)(OCOC(=O)C(C)(C)C)C(F)(F)c1ccc2sc(C(=O)N[C@H]3CCCCC[C@H]4CC[C@@H](C(=O)N5C[C@@H](C#N)[C@H](c6ccccc6)C5)N4C3=O)cc2c1` (relative stereo) [Compound 146, ((((2-(((3S,6S,11aS)-3-(rel-(trans)-3-cyano-4-phenylpyrrolidine-1-carbonyl)-5-oxodecahydro-1H-pyrrolo[1,2-a]azonin-6-yl)carbamoyl)benzo[b]thiophen-5-yl)difluoromethyl)phosphoryl)bis (oxy))bis(methylene) bis(2,2-dimethyl-propanoate)]: the IC50 at pY641-STAT6 in PBMC (setting [1]) is below 100 nM; on pY705-STAT3 in PBMC (Table 1114, read-out: pSTAT3), 1000 to 3000 nM.
On the same counts, the results for `CC(C)(C)C(=O)OCOP(=O)(OCOC(=O)C(C)(C)C)C(F)(F)c1ccc2sc(C(=O)N[C@@]3(C)CCCCC4CC[C@@H](C(=O)N5C[C@H](c6ccccc6)[C@@H](C#N)C5)N4C3=O)cc2c1` (relative stereo) [Compound 151, ((((2-(((3S,6S,10aS)-3-(rel-trans)-3-cyano-4-phenylpyrrolidine-1-carbonyl)-6-methyl-5-oxodecahydro-pyrrolo[1,2-a]azocin-6-yl)carbamoyl)benzo[b]thiophen-5-yl)difluoromethyl)phosphoryl)bis (oxy))bis (methylene) bis(2,2-dimethylpropanoate)] are 100 to 1000 nM and 100 to 1000 nM.
For `CC(C)(C)C(=O)SCCOP(=O)(OCCSC(=O)C(C)(C)C)C(F)(F)c1ccc2sc(C(=O)N[C@H]3CCCC[C@H]4CC[C@@H](C(=O)N5C[C@@H](C#N)[C@H](c6cc[nH]c(=O)c6)C5)N4C3=O)cc2c1` (relative stereo) [Compound 157, S,S′-(((((2-(((3S,6S,10aS)-3-(rel-(trans)-3-cyano-4-(2-oxo-1,2-dihydropyridin-4-yl)pyrrolidine-1-carbonyl)-5-oxodecahydro-pyrrolo[1,2-a]azocin-6-yl)carbamoyl)benzo [b]thiophen-5-yl)difluoromethyl)phosphoryl)bis(oxy))bis(ethane-2,1-diyl)) bis(2,2-dimethylpropane-thioate)], in that order: 100 to 1000 nM and 100 to 1000 nM.
For `CC(C)(C)C(=O)OCOP(=O)(OCOC(=O)C(C)(C)C)C(F)(F)c1ccc2sc(C(=O)N[C@H]3CCCC[C@H]4CC[C@@H](C(=O)N5C[C@H](c6ccccc6)[C@@H](C#N)C5)N4C3=O)cc2c1` (relative stereo) [Compound 190, ((((2-(((3S,6S,10aS)-3-(rel- trans)-3-cyano-4-phenyl-pyrrolidine-1-carbonyl)-5-oxodecahydro-pyrrolo[1,2-a]azocin-6-yl)carbamoyl)benzo[b]thiophen-5-yl)difluoro-methyl)phos-phoryl)bis(oxy)) bis(methylene) bis(2,2-dimethyl-propanoate)], in that order: below 100 nM and below 100 nM.
`CC(C)(C)C(=O)OCOP(=O)(OCOC(=O)C(C)(C)C)C(F)(F)c1ccc2ccc(C(=O)N[C@H]3CCCC[C@H]4CC[C@@H](C(=O)N5C[C@H](c6ccccc6)[C@@H](C#N)C5)N4C3=O)cc2c1` (relative stereo) [Compound 194, ((((7-(((3S,6S,10aS)-3-(rel-(trans)-3-cyano-4-phenyl-pyrrolidine-1-carbonyl)-5-oxodecahydro-pyrrolo[1,2-a]azocin-6-yl)carbamoyl)naphthalen-2-yl)difluoro-methyl)phos-phoryl)bis(oxy)) bis(methylene) bis(2,2-dimethyl-propanoate)]: the IC50 at pY641-STAT6 in PBMC (setting [1]) is below 100 nM; at pY705-STAT3 in PBMC (Table 1114, read-out: pSTAT3) it was 100 to 1000 nM.
For `CCCOC(=O)[C@H](C)NP(=O)(Oc1ccccc1)C(F)c1ccc2sc(C(=O)N[C@H]3CCCC[C@H]4CC[C@@H](C(=O)N5C[C@@H](c6ccccc6)[C@H](C#N)C56CC6)N4C3=O)cc2c1` (relative stereo) [Compound 325, propyl (((2-(((3S,6S,10aS)-3-((rel-trans)-7-cyano-6-phenyl-4-azaspiro[2.4]heptane-4-carbonyl)-5-oxodecahydropyrrolo [1,2-a]azocin-6-yl)carbamoyl)benzo [b]thiophen-5-yl)fluoromethyl) (phenoxy)phosphoryl)-L-alaninate], the IC50 was below 100 nM on pY641-STAT6 in PBMC (setting [2]) and above 3000 nM on pY705-STAT3 in PBMC (Table 115, read-out: STAT3).
On to `CCCOC(=O)[C@H](C)NP(=O)(Oc1ccccc1)[C@@H](F)c1ccc2sc(C(=O)N[C@H]3CCCC[C@H]4CC[C@@H](C(=O)N5C[C@H](c6cccc(F)c6)C(C#N)C56CC6)N4C3=O)cc2c1` (relative stereo) [Compound 337, propyl (((R)-(2-(((3S,6S,10aS)-3-((rel-trans)-7-cyano-6-(3-fluorophenyl)-4-azaspiro[2.4]heptane-4-carbonyl)-5-oxodecahydropyrrolo [1,2-a]azocin-6-yl)carbamoyl)benzo [b]thiophen-5-yl)fluoromethyl) (phenoxy)phosphoryl)-L-alaninate], for which the IC50 against pY641-STAT6 in PBMC (STAT6, PBMC, Table 115) is below 100 nM; on pY705-STAT3 in PBMC (Table 115, read-out: STAT3), above 3000 nM.
As for `CC(C)CC(=O)SCCOP(=O)(OCCSC(=O)CC(C)C)C(F)(F)c1ccc2ccc(C(=O)N[C@H]3CCCC[C@H]4CC[C@@H](C(=O)N5CC(n6ccnn6)[C@H](O)C5)N4C3=O)cc2c1` (relative stereo) [Compound 1086, S,S′-((((difluoro(7-(((3S,6S,10aS)-3-((rel-trans)-3-hydroxy-4-(1H-1,2,3-triazol-1-yl)pyrrolidine-1-carbonyl)-5-oxodecahydro-pyrrolo [1,2-a]azocin-6-yl)carbamoyl)naphthalen-2-yl)methyl)phosphoryl)bis(oxy))bis(ethane-2,1-diyl)) bis(3-methylbutanethioate)], the IC50 was 100 to 1000 nM at pY641-STAT6 in PBMC (setting [2]) and below 100 nM on pY705-STAT3 in PBMC (Table 115, read-out: STAT3).
